Measurements published in patent publication US7029671B1, “Method for activating human antigen-presenting cells, activated human antigen-presenting cells, and use thereof” (Kirin Brewery Company, Limited, priority 1996, dated 2006).

Legend:
[1] = system: Murine T cell lymphoma EL-4 cells; test: Pharmacological Test 4: APC therapy of EL-4-bearing mice, survival period; format: in vivo, mouse
Protocol: To study an anti-tumor effect of murine spleen-derived APCs activated with KRN7000 on mice implanted with tumor cells, experiments were performed with BDF1 mice (6-week-old, female). All experiments included 6 mice per group. Murine T cell lymphoma EL-4 cells were injected intravenously into each mouse at a level of 1×10^5 cells/mouse (injection day: day 0). On day 1, the vehicle-pretreated APCs (V-APC) and the KRN7000-pretreated (100 ng/mL) APCs (KRN-APC) both prepared in the same manner as in Pharmacological Test 3 were each injected intravenously into the mice at a level of 5×10^5 cells/mouse. As a positive control, KRN7000 was injected intravenously into the mice at a dose of 100 μg/kg on days 1, 5 and 9. Each mouse was checked for a sign of life daily to determine its survival period.

[2] = system: Human Peripheral Blood-derived APCs; test: Pharmacological Test 9: allogeneic MLR assay with human peripheral blood monocyte-derived APCs cultured 3 days; format: cell-based; conditions: conclusion from Pharmacological Tests 9, 10 and 11; KRN7000 100 ng/mL
Protocol: A monocyte fraction was prepared from human peripheral blood mononuclear cells by Percol density-gradient centrifugation. The monocyte fraction was cultured in the presence or absence of GM-CSF (50 ng/mL) and IL-4 (100 ng/mL), and simultaneously either a vehicle (v; DMSO, 0.1%) or KRN7000 (KRN; 100 ng/mL) was added thereto. After culturing for 3 days, the cells were collected and washed with the medium 3 times to give V-APC, KRN-APC, V-APC-GM and KRN-APC-GM (where “GM” refers to the APCs cultured in the presence of GM-CSF and IL-4), which were then provided for use as APCs. As responder cells, human peripheral blood-derived FcR^− cells were used to perform allogeneic MLR assay.

[3] = system: Human Peripheral Blood-derived APC; test: Pharmacological Test 1: autologous MLR assay with human peripheral blood-derived APCs pretreated with KRN7000; format: cell-based; conditions: KRN7000 100 ng/mL, 40 hours; conclusion from autologous MLR
Protocol: This experiment was designed to study an effect of KRN7000 (Compound No.14, a representative glycoside compound of the invention) on APCs prepared from human peripheral blood. The APCs (mainly comprised of dendritic cells) derived from human peripheral blood were prepared essentially according to the method of Hsu et al. (supra). Briefly, human peripheral blood was layered over Ficoll-Paque and centrifuged at 2,000 rpm for 35 minutes to give a mononuclear cell fraction. A portion of the mononuclear cell fraction was suspended into PBS (Ca^++, Mg^++ free) supplemented with 5% of inactivated human AB serum. The resultant solution was layered over 50% Percol, and then centrifuged at 3,000 rpm for 20 minutes to give a high-density fraction. The high-density fraction was panned using a human γ-globulin-coated dish to remove FcR^+ cells therefrom (i.e., a monocyte-removed fraction). The resultant fraction was reacted with anti-CD3 monoclonal antibodies, anti-CD21 monoclonal antibodies and anti-CD56 monoclonal antibodies. […]
The APCs (5×10^4 cells/well) and the responder cells (1×10^5 cells/well) both prepared in the above steps were added to wells of a 96-well flat-bottomed plate, and then subjected to autologous MLR assay. […] The amount of the ^3H-TdR taken up into the cells was determined using a liquid scintillation counter. […]

[4] = system: Murine melanoma B16 cells; test: Pharmacological Test 8: APC therapy of mice with subcutaneous B16 melanoma, tumor volume; format: in vivo, mouse; conditions: KRN7000 100 μg/kg i.v. on days 1, 5 and 9 (positive control)
Protocol: The experiment was performed with BDF1 mice (6-week-old, female), which were divided into groups consisting of 6 mice. Murine melanoma B16 cells were implanted subcutaneously into each mouse at a level of 1.5×10^6 cells/mouse (implantation day: day 0). Several types of pretreated APCs were prepared in the same manner as in Pharmacological Test 3, in which APCs were pretreated with a vehicle (DMSO, final concentration: 0.1%) (V-APC), with both the vehicle (DMSO, final concentration: 0.1%) and a B16-tumor cell lysate (V-T-APC), with KRN7000 (final concentration: 100 ng/mL) (KRN-APC), and with both KRN7000 (final concentration: 100 ng/mL) and a B16-tumor cell lysate (KRN-T-APC), respectively. Each of the pretreated APCs was injected intravenously into the mice at a dose of 5×10^5 cells/mouse on day 1. As a positive control, KRN7000 was injected intravenously into the mice at a dose of 100 μg/kg on days 1, 5 and 9. The volume of the subcutaneous tumor in each mouse was measured.

[5] = system: Human Umbilibal Cord Blood-derived APC; test: Pharmacological Test 12: autologous MLR assay with human umbilical cord blood monocyte-derived APCs; format: cell-based; conditions: KRN7000 100 ng/mL
Protocol: A monocyte fraction was prepared from human umbilical cord blood mononuclear cells by Percol density-gradient centrifugation. The monocyte fraction was cultured in the presence of GM-CSF (50 ng/mL) and IL-4 (100 ng/mL), and simultaneously either a vehicle (V; 0.1% DMSO) or KRN7000 (KRN; 100 ng/mL) was added thereto. After culturing for 3 days, the cells were recovered and washed with the medium 3 times to give V-APC-GM and KRN-APC-GM, respectively, which were provided for use as APCs. As response cells, human umbilical cord blood-derived FcR^− cells were used for autologous MLR assay.

[6] = system: dendritic cell-rich APCs prepared from the murine spleen; conditions: Koezuka 1995; Yamaguchi 1996; cited from earlier work
[7] = system: Murine colon adenocarcinoma Colon26 cells; test: Pharmacological Test 6: APC therapy of mice implanted intrasplenically with Colon26 cells, liver weight; format: in vivo, mouse
Protocol: The experiment was performed to study an anti-tumor effect of murine bone marrow-derived APCs activated with KRN7000 on mice implanted with tumor cells. All experiments were performed with CDF1 mice (6-week-old, female), which were divided into groups consisting of 5 mice. Murine colon adenocarcinoma Colon26 cells were implanted into each mouse intrasplenically at a level of 2×10^6 cells/mouse (inoculation day: day 0). On day 1, the vehicle-pretreated APCs (V-APC) and the KRN7000-pretreated (100 ng/mL) APCs (KRN-APC) both prepared in the same manner as in Pharmacological Test 5 were individually injected intravenously to the mice at a level of 8×10^5 cells/mouse. As a positive control, KRN7000 was injected intravenously to the mice at a dose of 100 μg/kg on days 1, 5 and 9. On day 14, the liver was removed from each of the mice and weighed. Here, the liver from the mouse that had not been implanted with the tumor cells was about 1 g. Accordingly, the substantial tumor weight was determined by subtracting 1 g from the weight of the liver of the tumor-implanted mouse.

[8] = KRN7000 100 μg/kg i.v. 3 times versus KRN-APC once

SMILES: CCCCCCCCCCCCCCCCCCCCCCCCCC(=O)N[C@@H](CO[C@H]1O[C@H](CO)[C@H](O)[C@H](O)[C@H]1O)[C@H](O)[C@H](O)CCCCCCCCCCCCCC [KRN7000, (2S,3S,4R)-1-(α-D-galactopyranosyloxy)-2-hexacosanoylamino-3,4-octadecanediol]
- survival period ([1]; EL-4 i.v. day 0, KRN7000 100 μg/kg i.v. on days 1, 5 and 9 (positive control)): remarkable increase in survival period
- potency of the survival effect compared with one injection of KRN-APC [1, 8]: weaker than that when KRN-APC was injected only once
- activation of APCs from human peripheral blood [2]: can activate the APCs from human peripheral blood by various methods
- activating effect on APCs (antigen-presenting function enhancing effect) [3]: has an activating effect on the APCs prepared from human peripheral blood
- tumor growth-inhibitory effect (volume of the subcutaneous tumor) [4]: tumor growth-inhibitory effect
- activation of APCs derived from human umbilical cord blood [5]: can activate the APCs derived from human umbilical cord blood by various methods
- enhancement of the functions of dendritic cell-rich APCs from murine spleen [6]: can enhance the functions of dendritic cell-rich APCs prepared from the murine spleen
- tumor growth inhibitory effect compared with one injection of KRN-APC [7, 8]: at the same level as that when KRN-APC was injected once
- inhibitory effect on tumor growth (liver weight on day 14) ([7]; KRN7000 100 μg/kg i.v. on days 1, 5 and 9 (positive control)): remarkable inhibitory effect on tumor growth
